According to the METLIN SMRT retention time set (Domingo-Almenara et al. 2019):

Experiment: gradient 5% acetonitrile 3 min, to 50% in 2 min, to 85% in 15 min, held 3 min, 100 µL/min
Conditions: column: Zorbax Extend-C18 2.1 x 50 mm; eluents: water / acetonitrile, 0.1% formic acid
Summary of the method: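 Each retention time is based on an adduct peak selected computationally and verified by manual inspection. Measurements used HPLC–quadrupole time-of-flight mass spectrometry in positive and negative ionization mode on mixtures of ~100 pure standards. Chromatography ran on a Zorbax Extend-C18 column (2.1 × 50 mm, 1.8 μm) at 100 μL/min with water and acetonitrile, each containing 0.1% formic acid, and dead and dwell volumes of 40 μL and 900 μL.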

Row | SMILES | RP-LC retention time
1 | O=c1cc(CSc2nnc(-c3cccc(Cl)c3)o2)nc2sccn12 | 832 s
2 | O=C(c1ccc(-c2cccs2)nc1)N1CCN(c2ccccc2)CC1 | 935 s
3 | CC1CCc2nc(NC(=O)CSc3nnc(-c4ccccc4)o3)sc2C1 (configuration not stated) | 989 s
4 | O=S(=O)(NCC1(c2cccs2)CCCC1)c1cccnc1 | 827 s
5 | CCc1nncn1C1CCN(S(=O)(=O)c2ccc(C)cc2C)CC1 | 738 s
6 | CCc1ccc(NS(=O)(=O)c2cc3n(c2)CCCN(C)C3=O)cc1 | 739 s
7 | CCCS(=O)(=O)NCCN1C(=O)C2(CCCCC2)C1c1ccccc1 (configuration not stated) | 898 s
8 | O=C(c1ccc2c(c1)OCO2)N1CCN(Cc2nnnn2-c2ccc(F)c(F)c2)CC1 | 746 s
9 | Cc1nc2c(c(N(C)CCc3c(C)nn(C)c3C)n1)CCC2 | 588 s
10 | Cc1nc2cc3c(cc2n1CC(=O)NCC1CCCO1)OCCO3 (configuration not stated) | 567 s
11 | O=C(C1CCN(Cc2cc3ccccc3n2Cc2cccc(F)c2)CC1)N1CCCC1 | 721 s
12 | COCCN1CCC(N2CCN(S(=O)(=O)c3ccc(OC)c(Cl)c3)CC2)C1=O (configuration not stated) | 583 s
13 | O=C(NC(c1ccccc1)c1nnc(N2CCCC2)o1)c1ccccc1Cl (configuration not stated) | 867 s
14 | Cc1ccc2oc(-c3nnc(C(=O)NCCCN4CCCC4)o3)c(C)c2c1 | 688 s
15 | CC(C)CC(=O)Nc1ccc(OCc2cc(C(=O)NC3CCCC3)no2)cc1 | 890 s
16 | CCCN1C(=O)c2cc(S(=O)(=O)N3CCCC3)ccc2Oc2cccnc21 | 913 s
17 | COCCNC(=O)CC1CCN(C(=O)c2[nH]c(C)c(C(=O)OC)c2C)CC1 | 614 s
18 | CCn1cnc(S(=O)(=O)N2CCCC(C(=O)Nc3ccccc3)C2)c1 (configuration not stated) | 726 s
19 | Cc1ccc(C(=O)N2C[C@@H]3C[C@H]2C[C@@H]3NS(C)(=O)=O)cc1F | 676 s
20 | CCOc1ccccc1N1CCN(S(=O)(=O)c2nn(C)cc2C(=O)NCCCOC)CC1 | 847 s
21 | CC(C)S(=O)(=O)N[C@H]1CCOC[C@@H]1c1ccc(-c2ccc(C#N)s2)cc1 | 958 s

Row | SMILES | RP-LC retention time
22 | O=C(Cc1ccccc1)NC1CCN(c2cc(-c3ccc(Cl)cc3)[nH]n2)C1 (configuration not stated) | 764 s
23 | Cc1cnc(C2CN(C3CCCCCC3)C2)n1Cc1cccnc1 | 608 s
24 | O=C(CSc1nnc(NC(=O)c2ccc(Br)o2)s1)NCC1CCCO1 (configuration not stated) | 648 s
25 | Cn1c(N2CCCC(C(=O)NCc3ccccc3)C2)cc(=O)n(C)c1=O (configuration not stated) | 662 s
26 | O=C(NCc1ccco1)c1ccc2c(c1)N(Cc1ccccc1)C(=O)CO2 | 942 s
27 | O=C(N1CCN(S(=O)(=O)Cc2ccccc2)CC1)N1C[C@H]2C[C@H](C1)[C@H]1CCCC(=O)N1C2 | 709 s
28 | O=S(=O)(c1ccc(-c2nnc(C3CC3)o2)o1)N1CCN(c2ccccc2)CC1 | 971 s
29 | COc1ccc(-c2ncc(C(=O)O)c(=O)[nH]2)cc1OC | 591 s
30 | Nc1ccc(CCNc2ncnc3c2ncn3C2OC(CO)C(O)C2O)cc1 (configuration not stated) | 540 s
31 | Cc1cnc(-c2ccccc2)n1C1CCN(S(=O)(=O)c2ccc(C#N)cc2)C1 (configuration not stated) | 680 s
32 | CC(=O)Nc1ccc(SCC(=O)c2ccc(Cl)cc2)nn1 | 756 s
33 | CN(CC1CCOC1)C(=O)Nc1cccc(Cl)c1 (configuration not stated) | 738 s
34 | O=C(c1cc(-c2ccco2)on1)N1CCC2(CC1)OCCS2 | 822 s
35 | CC(O)(CS(=O)(=O)c1ccc(F)cc1)C(=O)Nc1ccc(C#N)c(C(F)(F)F)c1 (configuration not stated) | 992 s
36 | O=C(C1CCCO1)N1N=C(c2ccc(Br)cc2)CC1c1ccco1 (configuration not stated) | 892 s
37 | O=C(NCc1ccco1)c1csc(N2CCN(c3ccc(Cl)cc3)CC2)n1 | 1090 s
38 | CCOC(=O)c1ncoc1-c1ccccc1C(=O)NC1CCCCC1 | 770 s
39 | CCc1ccc(S(=O)(=O)N2CCc3c(c(-c4nc(C5CC5)no4)nn3C)C2)cc1 | 1020 s
40 | Cc1nn(C)c(C)c1-c1cc(C(=O)O)[nH]n1 | 574 s
41 | CCc1cccc(NC(=O)N2C[C@@H](F)C[C@H]2C(=O)N2CCOCC2)c1 | 664 s

Other lines, results leading:

Row | RP-LC retention time | SMILES
42 | 911 s | Cc1cccc(NC(=O)COc2ccc(-c3cnc4ccccc4n3)cc2)n1
43 | 729 s | COc1cccc2sc(N(C)CC(=O)Nc3ccc(-n4cnnn4)cc3)nc12
44 | 1350 s | CCn1c(=O)c(N2CCCC(C(=O)N3CCN(c4cccc(C)c4C)CC3)C2)nc2ccccc21 (configuration not stated)
45 | 622 s | CCOc1cc(=O)c(C(N)=O)nn1-c1ccc(F)cc1
46 | 1180 s | O=C(NCc1ccccc1Cl)c1c(O)c2cccc3c2n(c1=O)CC3
47 | 766 s | CCOc1ccc(NC(=O)c2oc3ccc(C)cc3c2C)c2cccnc12
48 | 1010 s | Cn1c(=O)c(N2CCC(NC(=O)Nc3cccc(C(F)(F)F)c3)CC2)nc2ccccc21
49 | 798 s | Cc1nnc(-c2ccc3ccn(CC(=O)Nc4cccc(C)c4C)c3c2)o1
50 | 922 s | Cc1ccc(CNC(=O)COc2cc(C)nc(N3CCN(c4ccccc4)CC3)n2)cc1
51 | 898 s | COc1ccccc1N1CCN(C(=O)CN2C(=O)CC(c3cccs3)=Nc3ccccc32)CC1
52 | 1070 s | Cc1ccc(-c2cc(C(=O)NCC(C)C)n(C)c2)cc1
53 | 797 s | CCc1noc2nc(C)n(CC(=O)NCc3ccc(F)cc3)c(=O)c12
54 | 911 s | Cc1ccc2[nH]cc(CCN3CC(C(=O)Nc4cccc(Br)c4)CC3=O)c2c1 (configuration not stated)
55 | 936 s | COc1ccc(-c2nnc(-c3nc(N4CCC5(CC4)OCCO5)c4ccccc4n3)o2)cc1
56 | 830 s | COc1ccc(-c2c(C)noc2NC(C)=O)cc1S(=O)(=O)N(C)c1ccc(C)cc1
57 | 637 s | Cc1ccc(-c2ncc(C(=O)NCCN3CCCCCC3)c(-c3ccncc3)n2)cc1
58 | 866 s | COc1ccc(-n2c(=O)n(C)c(=O)c3cc(C(=O)Nc4ccc(F)cc4C)cnc32)cc1
59 | 1250 s | COc1ccccc1-c1nc(Cn2nnc(-c3nc(-c4cccc(C(F)(F)F)c4)no3)c2C)c(C)o1
60 | 951 s | CCc1noc(NC(C)=O)c1-c1ccc(C)c(S(=O)(=O)Nc2ccc(Br)c(C)c2)c1
61 | 734 s | Cc1ccc(-c2cn3c(CC(=O)NCCc4ccc(Cl)cc4)csc3n2)cc1C
62 | 764 s | Cc1ccc(-c2nc(-c3ccc4nncn4c3)no2)cc1F
63 | 920 s | CN(C)c1ccc(-c2noc(C3CC(=O)N(c4ccc5c(c4)OCCO5)C3)n2)cc1 (configuration not stated)
64 | 1160 s | COc1ccc(OC)c(NC(=O)c2cc(C)n3nc(-c4ccco4)cc3n2)c1
65 | 929 s | Cn1cnc2c(C(=O)NC3CCCCCC3)nn(-c3ccc(Cl)cc3)c2c1=O
66 | 1150 s | CCCCn1c(=O)c2ccccc2n(Cc2nc(-c3cccc(OCC)c3)no2)c1=O
67 | 964 s | CCc1ccc(Nc2nc(C(=O)NCCC(C)C)nc3ccccc23)cc1
